One experiment concerns Staphylococcus carnosus. The following applies: before femB mutation; cited from earlier work.
Experiment [1] deals with Staphylococcus carnosus femB mutant. The following applies: cited from earlier work.
Experiment [2] in a line: NMR CSP residual binding of SH3b mutant domains to P4 ligand. The conditions noted are these: 32 equivalents.
Experiment [3] is described as follows: NMR CSP residual binding of SH3b mutant domains to G5 ligand. The conditions noted are these: 32 equivalents.

Broadly, the MIC is the lowest concentration found to suppress growth. Turning to “lysostaphin: bacteriolytic enzyme produced and secreted by Staphylococcus simulans biovar staphylolyticus”, the results for the minimum inhibitory concentration (MIC) (with Staphylococcus carnosus; in experiment [1] (femB mutant)) were 0.01 µg/mL and 32 µg/mL, respectively. The “increase in the MIC values associated with femB mutation” value in experiment [1] (femB mutant vs parent) is 3000 fold.

B1: W489L: His-tagged lysostaphin SH3b domain with W489L substitution, for NMR (protein)
chain: SESASFTPNTDIITRTTGPFRSMPQSGVLKAGQTIHYDEVMKQDGHVWVGYTGNSGQRIYLPVRTWNKSTNTLGVLL
modifications: left off: His-tag, N-terminal, kept
In the case of B1, in experiment [2], the “residual binding (ratio of chemical shift changes of mutant to WT, averaged over all amino acids)” value worked out at 6.6%.

B2: R427M: His-tagged lysostaphin SH3b domain with R427M substitution, for NMR (protein)
chain: SESASFTPNTDIITMTTGPFRSMPQSGVLKAGQTIHYDEVMKQDGHVWVGYTGNSGQRIYLPVRTWNKS
modifications: left off: His-tag, N-terminal, kept
As for B2, in experiment [2], the “residual binding (ratio of chemical shift changes of mutant to WT, averaged over all amino acids)” value is reported as 1.6%.

B3: N405A: His-tagged lysostaphin SH3b domain with N405A substitution, for NMR (protein)
chain: AKYGTLYKSESASFTPNTDIITRTTGPFRSMPQSGVLKAGQTIHYDEVMKQDGHVWVGYTGNSGQRIYLPVRTWNKS
modifications: left off: His-tag, N-terminal, kept
For B3, the “residual binding (ratio of chemical shift changes of mutant to WT, averaged over all amino acids)” value in experiment [3] was 16%.

Values taken from publication PMC6920042 (Nature chemical biology, 2019).
